Assay [1] deals with T1, ABCG2 (Homo sapiens, UniProt Q9UNQ0).
T1 sequence (Q9UNQ0 1-655): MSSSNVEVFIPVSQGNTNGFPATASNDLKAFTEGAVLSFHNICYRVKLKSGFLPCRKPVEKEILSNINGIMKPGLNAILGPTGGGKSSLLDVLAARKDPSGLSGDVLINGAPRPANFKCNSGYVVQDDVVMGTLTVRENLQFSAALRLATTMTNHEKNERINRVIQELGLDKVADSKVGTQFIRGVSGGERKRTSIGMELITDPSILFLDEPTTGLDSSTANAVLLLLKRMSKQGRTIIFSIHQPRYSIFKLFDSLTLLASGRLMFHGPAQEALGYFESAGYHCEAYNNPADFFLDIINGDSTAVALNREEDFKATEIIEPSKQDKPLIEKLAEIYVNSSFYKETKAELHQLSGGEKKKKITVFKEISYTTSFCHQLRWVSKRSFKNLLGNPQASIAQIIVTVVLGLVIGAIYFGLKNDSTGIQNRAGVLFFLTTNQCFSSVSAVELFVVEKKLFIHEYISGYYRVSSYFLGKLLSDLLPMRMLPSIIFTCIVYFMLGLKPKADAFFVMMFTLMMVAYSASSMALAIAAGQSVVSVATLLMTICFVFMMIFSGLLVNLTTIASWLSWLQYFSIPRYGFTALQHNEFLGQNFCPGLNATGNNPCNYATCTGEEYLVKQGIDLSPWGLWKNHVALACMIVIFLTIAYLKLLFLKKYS
The assay is described as follows: Hoechst 33342 assay (plate reader), MDCK II BCRP cells.
Procedure: The fluorescence accumulation at an excitation wavelength of 360 nm and an emission wavelength of 460 nm was measured over a period of 120 min in 60 s intervals using a Paradigm microplate reader [Beckman Coulter (Brea, CA, USA)]. The average steady-state fluorescence value was calculated for each well and correlated to the used compound concentration.

Assay [2] deals with T2, ABCC1 (Homo sapiens, UniProt P33527). The assay is described as follows: Daunorubicin accumulation assay (flow cytometry), H69AR cells.
The target in assay [3] is T2, ABCC1. The assay is described as follows: Calcein AM assay (plate reader), ABCC1-overexpressing H69AR cells. Particulars: for IC50±SEM ABCC1 Calcein AM: H69AR cells, curve top constrained to reference 7; for mode of modulation of ABCC1 (in words): initial screening at 10 µM, calcein AM assay.
Assay [4] has as its target T1, ABCG2. The assay is described as follows: Pheophorbide A assay (flow cytometry), ABCG2-overexpressing MDCK II BCRP cells. Format: cell-based. The settings on record: curve top constrained to reference 8, read-out: IC50±SEM ABCG2 Pheophorbide A. The arrangement: host or cells: MDCK II.
Assay [5] concerns the target T3, ABCB1 (Homo sapiens, UniProt P08183). The assay is described as follows: Calcein AM assay (plate reader), ABCB1-overexpressing A2780/ADR cells.
Assay [6] concerns the target T3, ABCB1. The assay is described as follows: Daunorubicin accumulation assay (flow cytometry), A2780/ADR cells. On the technique in general: A flow cytometer gives signals particle by particle.

T3 sequence (P08183 whole entry): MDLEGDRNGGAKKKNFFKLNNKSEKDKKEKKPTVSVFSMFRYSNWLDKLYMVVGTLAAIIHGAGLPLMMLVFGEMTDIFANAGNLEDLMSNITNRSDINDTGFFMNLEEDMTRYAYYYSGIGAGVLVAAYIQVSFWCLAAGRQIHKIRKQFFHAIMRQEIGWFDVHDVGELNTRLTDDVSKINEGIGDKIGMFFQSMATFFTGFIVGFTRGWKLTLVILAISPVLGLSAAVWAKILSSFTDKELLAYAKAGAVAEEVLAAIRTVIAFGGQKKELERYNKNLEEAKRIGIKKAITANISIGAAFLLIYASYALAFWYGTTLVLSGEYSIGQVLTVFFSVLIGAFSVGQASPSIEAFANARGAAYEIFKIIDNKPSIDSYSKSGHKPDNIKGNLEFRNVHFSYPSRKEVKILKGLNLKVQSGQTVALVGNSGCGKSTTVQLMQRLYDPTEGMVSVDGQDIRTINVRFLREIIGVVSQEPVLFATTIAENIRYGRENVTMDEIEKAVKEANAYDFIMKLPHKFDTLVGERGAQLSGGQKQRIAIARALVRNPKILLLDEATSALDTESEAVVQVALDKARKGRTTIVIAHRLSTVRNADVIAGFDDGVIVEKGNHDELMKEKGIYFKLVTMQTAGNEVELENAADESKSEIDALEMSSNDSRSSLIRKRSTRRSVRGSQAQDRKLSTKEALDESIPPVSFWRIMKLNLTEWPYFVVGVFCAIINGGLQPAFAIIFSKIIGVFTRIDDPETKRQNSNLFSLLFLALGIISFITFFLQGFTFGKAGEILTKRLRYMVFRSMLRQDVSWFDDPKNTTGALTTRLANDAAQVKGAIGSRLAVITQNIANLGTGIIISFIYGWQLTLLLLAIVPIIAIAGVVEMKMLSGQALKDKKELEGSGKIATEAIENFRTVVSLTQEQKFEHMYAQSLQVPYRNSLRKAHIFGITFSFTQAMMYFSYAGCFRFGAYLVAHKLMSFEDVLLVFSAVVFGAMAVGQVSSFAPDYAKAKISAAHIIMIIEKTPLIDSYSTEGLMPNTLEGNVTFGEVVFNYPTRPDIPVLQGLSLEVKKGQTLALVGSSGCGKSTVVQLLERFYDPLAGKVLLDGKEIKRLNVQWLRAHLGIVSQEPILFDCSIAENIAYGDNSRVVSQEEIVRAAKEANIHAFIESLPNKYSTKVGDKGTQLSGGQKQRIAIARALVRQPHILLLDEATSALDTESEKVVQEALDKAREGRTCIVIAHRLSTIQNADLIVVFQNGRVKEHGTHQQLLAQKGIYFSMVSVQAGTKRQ
T2 sequence (P33527 whole entry): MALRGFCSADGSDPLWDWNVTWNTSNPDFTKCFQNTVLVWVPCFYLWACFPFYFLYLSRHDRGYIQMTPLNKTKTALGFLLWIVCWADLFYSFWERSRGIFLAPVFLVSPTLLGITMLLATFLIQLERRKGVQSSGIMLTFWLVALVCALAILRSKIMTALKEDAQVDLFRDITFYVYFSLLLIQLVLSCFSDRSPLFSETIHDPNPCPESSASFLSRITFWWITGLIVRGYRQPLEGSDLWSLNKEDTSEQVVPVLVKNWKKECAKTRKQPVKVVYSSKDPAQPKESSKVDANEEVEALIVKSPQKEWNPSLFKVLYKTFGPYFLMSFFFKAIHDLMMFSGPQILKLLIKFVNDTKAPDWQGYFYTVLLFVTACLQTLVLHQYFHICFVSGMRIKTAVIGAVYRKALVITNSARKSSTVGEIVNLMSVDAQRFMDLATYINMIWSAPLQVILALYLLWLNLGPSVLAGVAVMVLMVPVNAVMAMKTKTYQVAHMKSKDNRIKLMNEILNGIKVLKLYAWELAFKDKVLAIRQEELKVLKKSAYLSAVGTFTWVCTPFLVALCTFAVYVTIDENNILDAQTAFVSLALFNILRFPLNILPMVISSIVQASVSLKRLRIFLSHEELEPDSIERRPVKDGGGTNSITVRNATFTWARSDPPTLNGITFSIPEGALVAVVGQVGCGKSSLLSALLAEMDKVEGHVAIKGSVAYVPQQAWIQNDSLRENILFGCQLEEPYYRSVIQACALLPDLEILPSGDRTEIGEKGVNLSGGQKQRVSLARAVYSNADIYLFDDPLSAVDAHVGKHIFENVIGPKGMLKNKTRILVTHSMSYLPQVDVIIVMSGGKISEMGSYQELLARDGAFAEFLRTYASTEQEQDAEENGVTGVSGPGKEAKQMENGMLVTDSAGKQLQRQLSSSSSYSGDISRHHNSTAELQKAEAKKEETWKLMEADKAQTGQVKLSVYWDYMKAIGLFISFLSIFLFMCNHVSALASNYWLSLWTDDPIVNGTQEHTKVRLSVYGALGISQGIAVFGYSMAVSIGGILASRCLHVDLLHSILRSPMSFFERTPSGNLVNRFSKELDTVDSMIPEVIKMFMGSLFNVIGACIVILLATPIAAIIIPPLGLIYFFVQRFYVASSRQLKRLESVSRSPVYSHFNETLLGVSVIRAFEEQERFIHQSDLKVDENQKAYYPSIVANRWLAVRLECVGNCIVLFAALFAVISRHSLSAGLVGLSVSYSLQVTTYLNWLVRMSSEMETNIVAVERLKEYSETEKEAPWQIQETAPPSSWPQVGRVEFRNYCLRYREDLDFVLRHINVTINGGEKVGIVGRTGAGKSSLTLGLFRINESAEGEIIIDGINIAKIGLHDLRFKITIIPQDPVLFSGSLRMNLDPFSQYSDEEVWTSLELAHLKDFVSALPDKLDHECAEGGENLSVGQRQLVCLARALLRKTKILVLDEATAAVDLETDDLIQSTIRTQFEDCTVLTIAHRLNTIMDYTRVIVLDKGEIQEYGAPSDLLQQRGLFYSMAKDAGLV

Regarding `Cc1onc(-c2ccccc2Cl)c1C(=O)N1CCN(Cc2nnnn2-c2ccc(F)cc2)CC1` [Compound 3], the IC50 was 37.9 ± 12.5 µM against ABCG2 [1], 38.7 ± 15.2 µM against ABCC1 [2], 38.6 ± 2.2 µM at ABCC1 [3] and 15.9 ± 1.1 µM at ABCG2 [4].

Turning to `O=C(C1c2ccccc2Oc2ccccc21)N1CCN(Cc2nnnn2-c2ccc(F)cc2)CC1` [Compound 4], the “IC50±SEM ABCC1 Calcein AM” value on ABCC1 [3] is recorded as “n.i”. In addition, the IC50 on ABCG2 [4] was 15.1 ± 1.2 µM; on ABCB1 [5], 15.5 ± 1.3 µM.

Turning to `COc1ccc(OCc2noc(CN3CCN(C(=O)C45CC6CC(CC(C6)C4)C5)CC3)n2)cc1` [Compound 5], the IC50 against ABCG2 [1] is 28.5 ± 6.1 µM; at ABCC1 [2], 57 ± 6.5 µM; on ABCC1 [3], 60.9 ± 14 µM; on ABCB1 [6], 80.2 ± 30.1 µM; at ABCG2 [4] it was 12.4 ± 1.3 µM; on ABCB1 [5], 25.6 ± 1.1 µM.

`Cn1c(=O)n(C)c2cc(S(=O)(=O)N3CCN(C(c4ccccc4)c4ccccc4)CC3)ccc21` [Compound 2]: on ABCC1 [3], the “IC50±SEM ABCC1 Calcein AM” value is reported as “n.i” and the “mode of modulation of ABCC1 (in words)” value is reported as “apparent slight activation of ABCC1”. The half-maximal inhibitory concentration (IC50) on ABCG2 [4] was 25.8 ± 12.1 µM. For the same compound, on ABCB1 [5], the concentration for half-maximal inhibition (IC50) is 8.26 ± 0.54 µM.

With `Cc1ccccc1Cn1c(N2CCN(CCc3ccccc3)CC2)nc2c1c(=O)[nH]c(=O)n2C` [Compound 1], the “IC50±SEM ABCC1 Calcein AM” value on ABCC1 [3] is listed as “n.i”. Moreover, the “mode of modulation of ABCC1 (in words)” value on ABCC1 [3] was “apparent slight activation of ABCC1”. Besides, the half-maximal inhibitory concentration (IC50) was 7.89 ± 0.44 µM on ABCG2 [4] and 22.7 ± 5.4 µM on ABCB1 [5].

As a reminder, the IC50 is the concentration at which inhibition is half-maximal.
